Assay results as given in PubChem BioAssay (NCI).
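Step 1: Grow cells in 96-well plates. Step 2: Expose to compound for 48 hours at 5 concentrations. Step 3: Interpolate endpoints linearly; if unreached, use highest concentration. TGI: total growth inhibition.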

Tested on: HCT-15 colon
Assay: NCI anticancer screen, dose series, 48 h

Row | Compound | TGI
1 | N/N=C(\CCN1CCCC1)CC(c1ccccc1)c1c(O)c2ccccc2oc1=O (configuration not stated) | > 100 µM

Tested on: HL-60(TB) leukemia
Assay: NCI anticancer screen, dose series, 48 h

Row | Compound | TGI
2 | COc1cc2c(cc1O)[C@@]1(Cc3ccc(OC)c(OC)c3)CCC(=O)N1CC2 | > 100 µM
3 | Cc1ccc(Oc2ccc(C(=O)c3cccc(C(=O)c4ccc(Oc5ccc(C)cc5)cc4)n3)cc2)cc1 | > 100 µM
4 | COc1ccc(/C=C/C(=O)c2cc(C(=O)O)c(OC)cc2OC)cc1OC | > 100 µM
5 | CC(=O)NC(CCCN(Cc1ccccc1)C(=O)NCCCl)C(=O)NCc1ccccc1 (configuration not stated) | > 100 µM
6 | N/N=C(\CCN1CCCC1)CC(c1ccccc1)c1c(O)c2ccccc2oc1=O (configuration not stated) | > 100 µM

Tested on: HOP-18 NSCLC
Assay: NCI anticancer screen, dose series, 48 h

Row | Compound | TGI
7 | COc1cc2c(cc1O)[C@@]1(Cc3ccc(OC)c(OC)c3)CCC(=O)N1CC2 | > 100 µM
8 | Cc1ccc(Oc2ccc(C(=O)c3cccc(C(=O)c4ccc(Oc5ccc(C)cc5)cc4)n3)cc2)cc1 | > 100 µM
9 | COc1ccc(/C=C/C(=O)c2cc(C(=O)O)c(OC)cc2OC)cc1OC | > 100 µM
10 | CC(=O)NC(CCCN(Cc1ccccc1)C(=O)NCCCl)C(=O)NCc1ccccc1 (configuration not stated) | > 100 µM
11 | N/N=C(\CCN1CCCC1)CC(c1ccccc1)c1c(O)c2ccccc2oc1=O (configuration not stated) | > 100 µM

Tested on: HOP-62 NSCLC
Assay: NCI anticancer screen, dose series, 48 h

Row | Compound | TGI
12 | COc1cc2c(cc1O)[C@@]1(Cc3ccc(OC)c(OC)c3)CCC(=O)N1CC2 | > 100 µM
13 | Cc1ccc(Oc2ccc(C(=O)c3cccc(C(=O)c4ccc(Oc5ccc(C)cc5)cc4)n3)cc2)cc1 | > 100 µM
14 | COc1ccc(/C=C/C(=O)c2cc(C(=O)O)c(OC)cc2OC)cc1OC | > 100 µM
15 | CC(=O)NC(CCCN(Cc1ccccc1)C(=O)NCCCl)C(=O)NCc1ccccc1 (configuration not stated) | > 100 µM
16 | N/N=C(\CCN1CCCC1)CC(c1ccccc1)c1c(O)c2ccccc2oc1=O (configuration not stated) | > 100 µM

Tested on: HOP-92 NSCLC
Assay: NCI anticancer screen, dose series, 48 h

Row | Compound | TGI
17 | COc1cc2c(cc1O)[C@@]1(Cc3ccc(OC)c(OC)c3)CCC(=O)N1CC2 | 92.4 µM
18 | Cc1ccc(Oc2ccc(C(=O)c3cccc(C(=O)c4ccc(Oc5ccc(C)cc5)cc4)n3)cc2)cc1 | > 100 µM
19 | COc1ccc(/C=C/C(=O)c2cc(C(=O)O)c(OC)cc2OC)cc1OC | > 100 µM
20 | CC(=O)NC(CCCN(Cc1ccccc1)C(=O)NCCCl)C(=O)NCc1ccccc1 (configuration not stated) | > 100 µM
21 | N/N=C(\CCN1CCCC1)CC(c1ccccc1)c1c(O)c2ccccc2oc1=O (configuration not stated) | > 100 µM

Tested on: HT29 colon
Assay: NCI anticancer screen, dose series, 48 h

Row | Compound | TGI
22 | COc1cc2c(cc1O)[C@@]1(Cc3ccc(OC)c(OC)c3)CCC(=O)N1CC2 | > 100 µM
23 | Cc1ccc(Oc2ccc(C(=O)c3cccc(C(=O)c4ccc(Oc5ccc(C)cc5)cc4)n3)cc2)cc1 | > 100 µM
24 | COc1ccc(/C=C/C(=O)c2cc(C(=O)O)c(OC)cc2OC)cc1OC | > 100 µM
25 | CC(=O)NC(CCCN(Cc1ccccc1)C(=O)NCCCl)C(=O)NCc1ccccc1 (configuration not stated) | > 100 µM
26 | N/N=C(\CCN1CCCC1)CC(c1ccccc1)c1c(O)c2ccccc2oc1=O (configuration not stated) | > 100 µM

Tested on: IGROV1 ovarian
Assay: NCI anticancer screen, dose series, 48 h

Row | Compound | TGI
27 | COc1cc2c(cc1O)[C@@]1(Cc3ccc(OC)c(OC)c3)CCC(=O)N1CC2 | > 100 µM
28 | Cc1ccc(Oc2ccc(C(=O)c3cccc(C(=O)c4ccc(Oc5ccc(C)cc5)cc4)n3)cc2)cc1 | > 100 µM
29 | COc1ccc(/C=C/C(=O)c2cc(C(=O)O)c(OC)cc2OC)cc1OC | > 100 µM
30 | CC(=O)NC(CCCN(Cc1ccccc1)C(=O)NCCCl)C(=O)NCc1ccccc1 (configuration not stated) | > 100 µM
31 | N/N=C(\CCN1CCCC1)CC(c1ccccc1)c1c(O)c2ccccc2oc1=O (configuration not stated) | > 100 µM

Tested on: K-562 leukemia
Assay: NCI anticancer screen, dose series, 48 h

Row | Compound | TGI
32 | COc1cc2c(cc1O)[C@@]1(Cc3ccc(OC)c(OC)c3)CCC(=O)N1CC2 | > 100 µM
33 | Cc1ccc(Oc2ccc(C(=O)c3cccc(C(=O)c4ccc(Oc5ccc(C)cc5)cc4)n3)cc2)cc1 | > 100 µM
34 | COc1ccc(/C=C/C(=O)c2cc(C(=O)O)c(OC)cc2OC)cc1OC | > 100 µM
35 | CC(=O)NC(CCCN(Cc1ccccc1)C(=O)NCCCl)C(=O)NCc1ccccc1 (configuration not stated) | > 100 µM
36 | N/N=C(\CCN1CCCC1)CC(c1ccccc1)c1c(O)c2ccccc2oc1=O (configuration not stated) | > 100 µM

Tested on: KM12 colon
Assay: NCI anticancer screen, dose series, 48 h

Row | Compound | TGI
37 | COc1cc2c(cc1O)[C@@]1(Cc3ccc(OC)c(OC)c3)CCC(=O)N1CC2 | > 100 µM
38 | Cc1ccc(Oc2ccc(C(=O)c3cccc(C(=O)c4ccc(Oc5ccc(C)cc5)cc4)n3)cc2)cc1 | > 100 µM
39 | COc1ccc(/C=C/C(=O)c2cc(C(=O)O)c(OC)cc2OC)cc1OC | > 100 µM
40 | CC(=O)NC(CCCN(Cc1ccccc1)C(=O)NCCCl)C(=O)NCc1ccccc1 (configuration not stated) | > 100 µM
41 | N/N=C(\CCN1CCCC1)CC(c1ccccc1)c1c(O)c2ccccc2oc1=O (configuration not stated) | > 100 µM

Tested on: KM20L2 colon
Assay: NCI anticancer screen, dose series, 48 h

Row | Compound | TGI
42 | COc1cc2c(cc1O)[C@@]1(Cc3ccc(OC)c(OC)c3)CCC(=O)N1CC2 | > 100 µM
43 | Cc1ccc(Oc2ccc(C(=O)c3cccc(C(=O)c4ccc(Oc5ccc(C)cc5)cc4)n3)cc2)cc1 | > 100 µM
44 | COc1ccc(/C=C/C(=O)c2cc(C(=O)O)c(OC)cc2OC)cc1OC | > 100 µM
45 | CC(=O)NC(CCCN(Cc1ccccc1)C(=O)NCCCl)C(=O)NCc1ccccc1 (configuration not stated) | > 100 µM
46 | N/N=C(\CCN1CCCC1)CC(c1ccccc1)c1c(O)c2ccccc2oc1=O (configuration not stated) | > 100 µM

Tested on: LOX IMVI melanoma
Assay: NCI anticancer screen, dose series, 48 h

Row | Compound | TGI
47 | COc1cc2c(cc1O)[C@@]1(Cc3ccc(OC)c(OC)c3)CCC(=O)N1CC2 | > 100 µM
48 | Cc1ccc(Oc2ccc(C(=O)c3cccc(C(=O)c4ccc(Oc5ccc(C)cc5)cc4)n3)cc2)cc1 | > 100 µM
49 | COc1ccc(/C=C/C(=O)c2cc(C(=O)O)c(OC)cc2OC)cc1OC | > 100 µM
50 | CC(=O)NC(CCCN(Cc1ccccc1)C(=O)NCCCl)C(=O)NCc1ccccc1 (configuration not stated) | > 100 µM
51 | N/N=C(\CCN1CCCC1)CC(c1ccccc1)c1c(O)c2ccccc2oc1=O (configuration not stated) | > 100 µM

Tested on: LXFL 529 NSCLC
Assay: NCI anticancer screen, dose series, 48 h

Row | Compound | TGI
52 | COc1cc2c(cc1O)[C@@]1(Cc3ccc(OC)c(OC)c3)CCC(=O)N1CC2 | > 100 µM
53 | Cc1ccc(Oc2ccc(C(=O)c3cccc(C(=O)c4ccc(Oc5ccc(C)cc5)cc4)n3)cc2)cc1 | > 100 µM
54 | COc1ccc(/C=C/C(=O)c2cc(C(=O)O)c(OC)cc2OC)cc1OC | > 100 µM
55 | CC(=O)NC(CCCN(Cc1ccccc1)C(=O)NCCCl)C(=O)NCc1ccccc1 (configuration not stated) | > 100 µM
56 | N/N=C(\CCN1CCCC1)CC(c1ccccc1)c1c(O)c2ccccc2oc1=O (configuration not stated) | > 100 µM

Tested on: M14 melanoma
Assay: NCI anticancer screen, dose series, 48 h

Row | Compound | TGI
57 | COc1cc2c(cc1O)[C@@]1(Cc3ccc(OC)c(OC)c3)CCC(=O)N1CC2 | > 100 µM
58 | Cc1ccc(Oc2ccc(C(=O)c3cccc(C(=O)c4ccc(Oc5ccc(C)cc5)cc4)n3)cc2)cc1 | > 100 µM
59 | COc1ccc(/C=C/C(=O)c2cc(C(=O)O)c(OC)cc2OC)cc1OC | > 100 µM
60 | CC(=O)NC(CCCN(Cc1ccccc1)C(=O)NCCCl)C(=O)NCc1ccccc1 (configuration not stated) | > 100 µM
61 | N/N=C(\CCN1CCCC1)CC(c1ccccc1)c1c(O)c2ccccc2oc1=O (configuration not stated) | > 100 µM

Tested on: M19-MEL melanoma
Assay: NCI anticancer screen, dose series, 48 h

Row | Compound | TGI
62 | COc1cc2c(cc1O)[C@@]1(Cc3ccc(OC)c(OC)c3)CCC(=O)N1CC2 | > 100 µM
63 | COc1ccc(/C=C/C(=O)c2cc(C(=O)O)c(OC)cc2OC)cc1OC | > 100 µM
64 | CC(=O)NC(CCCN(Cc1ccccc1)C(=O)NCCCl)C(=O)NCc1ccccc1 (configuration not stated) | > 100 µM
65 | N/N=C(\CCN1CCCC1)CC(c1ccccc1)c1c(O)c2ccccc2oc1=O (configuration not stated) | > 100 µM

Tested on: MALME-3M melanoma
Assay: NCI anticancer screen, dose series, 48 h

Row | Compound | TGI
66 | COc1cc2c(cc1O)[C@@]1(Cc3ccc(OC)c(OC)c3)CCC(=O)N1CC2 | > 100 µM
67 | Cc1ccc(Oc2ccc(C(=O)c3cccc(C(=O)c4ccc(Oc5ccc(C)cc5)cc4)n3)cc2)cc1 | > 100 µM
